We go through 19 compounds from patent US20260001888A1, “PYRAZOLOPYRIMIDINE PDE9 INHIBITORS” (Merck Sharp & Dohme LLC, priority 2018, published 2026).

Human PDE9 (PDE9A2), sequence (O76083 other isoform, or with tags, fused parts or gaps): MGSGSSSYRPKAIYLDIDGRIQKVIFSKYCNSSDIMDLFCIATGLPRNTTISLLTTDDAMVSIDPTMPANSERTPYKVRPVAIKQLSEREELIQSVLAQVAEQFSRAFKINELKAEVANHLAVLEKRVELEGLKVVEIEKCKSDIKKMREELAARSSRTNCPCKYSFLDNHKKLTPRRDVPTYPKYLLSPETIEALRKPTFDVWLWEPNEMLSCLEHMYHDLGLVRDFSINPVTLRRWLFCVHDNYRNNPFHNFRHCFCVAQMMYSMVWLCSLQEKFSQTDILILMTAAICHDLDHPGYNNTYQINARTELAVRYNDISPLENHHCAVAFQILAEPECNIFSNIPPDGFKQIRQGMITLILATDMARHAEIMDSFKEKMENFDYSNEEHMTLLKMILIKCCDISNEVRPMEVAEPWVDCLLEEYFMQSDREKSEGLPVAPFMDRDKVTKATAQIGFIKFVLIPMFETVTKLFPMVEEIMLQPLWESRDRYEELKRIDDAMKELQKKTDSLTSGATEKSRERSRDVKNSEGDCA

In the assay the target is Human PDE9 (PDE9A2) (Homo sapiens (Human), UniProt O76083). In words: PDE9 IMAP fluorescence polarization (FP) inhibition assay. Particulars: apparent inhibition constant; human PDE9A2, FAM-cGMP substrate 50 nM, room temperature. The assay is classed as biochemical. How it is done:
The activity of the compounds in accordance with the present invention as PDE9 inhibitors may be readily determined without undue experimentation using a fluorescence polarization (FP) methodology that is well known in the art (Huang, W., et al., J. Biomol Screen, 2002, 7:215).
In a typical experiment the PDE9 inhibitory activity of the compounds of the present invention was determined in accordance with the following experimental method.
Human PDE9 (PDE9A2, GenBank Accession No. NM_001001567), full length with N-terminal GST tag, was purchased from BPS Bioscience. The fluorescence polarization assay for cyclic nucleotide phosphodiesterases was performed using an IMAP® FP kit supplied by Molecular Devices, Sunnyvale, CA (product #R8139). IMAP® technology has been applied previously to phosphodiesterase assays (Huang, W., et al., J. Biomol Screen, 2002, 7:215). Assays were performed at room temperature in 384-well microtiter plates with an incubation volume of 20.2 μL. Solutions of test compounds were prepared in DMSO and serially diluted with DMSO to yield 8 μL of each of 10 solutions differing by 3-fold in concentration, at 32 serial dilutions per plate. 100% inhibition is determined using a known PDE9 inhibitor, such as 1-(2-chlorophenyl)-6-[(2R)-3,3,3-trifluoro-2-methylpropyl]-1,5-dihydro-4H-pyrazolo[3,4-d]pyrimidine-4-one (BAY 73-6691) (Wunder et al, Mol. Pharmacol., 2005, 68 (6): 1775-81), (6-[(3S,4S)-4-methyl-1-(pyrimidin-2-ylmethyl) pyrrolidin-3-yl]-1-(tetrahydro-2H-pyran-4-yl)-1,5-dihydro-4H-pyrazolo[3,4-d]pyrimidin-4-one (PF-04447943) (Wager et al., ACS Chemical Neuroscience, 2010, 1:435-449). 0% of inhibition is determined by using DMSO (1% final concentrations). A Labcyte Echo 555 (Labcyte, Sunnyvale, CA) is used to dispense 200 nL from each well of the titration plate to the 384 well assay plate. Human PDE9A2 membrane preps were diluted to 1 ng/ml. […] PDE9 enzyme mix and compounds were mixed and incubated at room temperature for 30 min. Following which, FAMcGMP substrate was added, shaken and incubated for an additional 60 min at room temperature. The final concentration of human PDE9 membrane preparations were 0.5 ng/ml. The final concentration of FAM-cGMP was 50 nM. After the incubation period, the enzymatic reaction was stopped by addition of binding solution (IMAP-FP, Molecular Devices, comprised of 80% Solution A, 20% Solution B and a 1:600 dilution of binding reagent) to each well. The plates were shaken then incubated at room temperature for 1 h prior to determining the fluorescence polarization (mP) using a Perkin Elmer En Vision™ plate reader (Waltham, MA).
Fluorescence polarization (mP) was calculated from the parallel(S) and perpendicular (P) fluorescence of each sample well and the analogous values for the median control well, containing only substrate (So and Po), using the following equation: […]
Dose-inhibition profiles for each compound were characterized by fitting the mP data to a four-parameter equation given below. The apparent inhibition constant (KI), the maximum inhibition at the low plateau relative to “100% Inhibition Control” (Imax; e.g. 1=>same as this control), the minimum inhibition at the high plateau relative to the “0% Inhibition Control” (Imin, e.g. 0=>same as the no drug control) and the Hill slope (nH) are determined by a non-linear least squares fitting of the mP values as a function of dose of the compound using an in-house software based on the procedures described by Mosser et al., JALA, 2003, 8:54-63, using the following equation: […]
An apparent (Km) for FAM-labeled […] of 150 nM was determined in separate experiments through simultaneous variation of substrate and selected drug concentrations.
A general note: In fluorescence polarisation assays a small probe gives low polarisation when free and higher when bound to something large.
Take `CCC(c1ncccn1)N(C)c1nc2c(c(C#N)nn2C(C)c2ccc(C3CC3)nc2)c(=O)[nH]1` (single isomer, unassigned) [Example 1, 1-(1-(6-Cyclopropylpyridin-3-yl)ethyl)-6-(methyl(1-(pyrimidin-2-yl)propyl)amino)-4-oxo-4,5-dihydro-1H-pyrazolo[3,4-d]pyrimidine-3-carbonitrile]: the Ki amounted to 3.2 nM.
With `CCC(c1ncccn1)N(C)c1nc2c(c(C#N)nn2C(C)c2ccc(C3CC3)nc2)c(=O)[nH]1` (single isomer, unassigned) [Example 2, 1-(1-(6-Cyclopropylpyridin-3-yl)ethyl)-6-(methyl(1-(pyrimidin-2-yl)propyl)amino)-4-oxo-4,5-dihydro-1H-pyrazolo[3,4-d]pyrimidine-3-carbonitrile], the Ki stood at 5.24 nM.
With `CCC(c1ncccn1)N(C)c1nc2c(c(C#N)nn2C(C)c2ccc(C3CC3)nc2)c(=O)[nH]1` (single isomer, unassigned) [Example 3, 1-(1-(6-Cyclopropylpyridin-3-yl)ethyl)-6-(methyl(1-(pyrimidin-2-yl)propyl)amino)-4-oxo-4,5-dihydro-1H-pyrazolo[3,4-d]pyrimidine-3-carbonitrile] the figure was 1.82 nM; with `CCC(c1ncccn1)N(C)c1nc2c(c(C#N)nn2C(C)c2ccc(C3CC3)nc2)c(=O)[nH]1` (single isomer, unassigned) [Example 4, 1-(1-(6-Cyclopropylpyridin-3-yl)ethyl)-6-(methyl(1-(pyrimidin-2-yl)propyl)amino)-4-oxo-4,5-dihydro-1H-pyrazolo[3,4-d]pyrimidine-3-carbonitrile], 0.03 nM; with `CC(c1ncccn1)N(C)c1nc2c(c(C#N)nn2C(C)c2ccc(C(F)(F)F)nc2)c(=O)[nH]1` (single isomer, unassigned) [Example 5, 6-[methyl(1-pyrimidin-2-ylethyl)amino]-4-oxo-1-[1-[6-(trifluoromethyl)-3-pyridyl]ethyl]-5H-pyrazolo[3,4-d]pyrimidine-3-carbonitrile], 2.3 nM.
With `CC(c1ncccn1)N(C)c1nc2c(c(C#N)nn2C(C)c2ccc(C(F)(F)F)nc2)c(=O)[nH]1` (single isomer, unassigned) [Example 6, 6-[methyl(1-pyrimidin-2-ylethyl)amino]-4-oxo-1-[1-[6-(trifluoromethyl)-3-pyridyl]ethyl]-5H-pyrazolo[3,4-d]pyrimidine-3-carbonitrile] the figure was 6.21 nM; with `CC(c1ncccn1)N(C)c1nc2c(c(C#N)nn2C(C)c2ccc(C(F)(F)F)nc2)c(=O)[nH]1` (single isomer, unassigned) [Example 7, 6-[methyl(1-pyrimidin-2-ylethyl)amino]-4-oxo-1-[1-[6-(trifluoromethyl)-3-pyridyl]ethyl]-5H-pyrazolo[3,4-d]pyrimidine-3-carbonitrile], 20.8 nM.
The figure for `CC(c1ncccn1)N(C)c1nc2c(c(C#N)nn2C(C)c2ccc(C(F)(F)F)nc2)c(=O)[nH]1` (single isomer, unassigned) [Example 8, 6-[methyl(1-pyrimidin-2-ylethyl)amino]-4-oxo-1-[1-[6-(trifluoromethyl)-3-pyridyl]ethyl]-5H-pyrazolo[3,4-d]pyrimidine-3-carbonitrile] is 243 nM; for `CCC(c1ncccn1)N(C)c1nc2c(c(C#N)nn2C(C)c2ccc(C(F)(F)F)nc2)c(=O)[nH]1` (single isomer, unassigned) [Example 9, 6-[methyl(1-pyrimidin-2-ylpropyl)amino]-4-oxo-1-[1-[6-(trifluoromethyl)-3-pyridyl]ethyl]-5H-pyrazolo[3,4-d]pyrimidine-3-carbonitrile] it is 0.14 nM; for `CCC(c1ncccn1)N(C)c1nc2c(c(C#N)nn2C(C)c2ccc(C(F)(F)F)nc2)c(=O)[nH]1` (single isomer, unassigned) [Example 10, 6-[methyl(1-pyrimidin-2-ylpropyl)amino]-4-oxo-1-[1-[6-(trifluoromethyl)-3-pyridyl]ethyl]-5H-pyrazolo[3,4-d]pyrimidine-3-carbonitrile] it is 9.98 nM.
As to `CCC(c1ncccn1)N(C)c1nc2c(c(C#N)nn2C(C)c2ccc(C(F)(F)F)nc2)c(=O)[nH]1` (single isomer, unassigned) [Example 11, 6-[methyl(1-pyrimidin-2-ylpropyl)amino]-4-oxo-1-[1-[6-(trifluoromethyl)-3-pyridyl]ethyl]-5H-pyrazolo[3,4-d]pyrimidine-3-carbonitrile], the Ki is 24.5 nM.
With `CCC(c1ncccn1)N(C)c1nc2c(c(C#N)nn2C(C)c2ccc(C(F)(F)F)nc2)c(=O)[nH]1` (single isomer, unassigned) [Example 12, 6-[methyl(1-pyrimidin-2-ylpropyl)amino]-4-oxo-1-[1-[6-(trifluoromethyl)-3-pyridyl]ethyl]-5H-pyrazolo[3,4-d]pyrimidine-3-carbonitrile] the figure was 39 nM.
With `CCC(c1ncccn1)N(C)c1nc2c(c(C#N)nn2C(C)c2ccc(C(F)(F)F)cc2)c(=O)[nH]1` (single isomer, unassigned) [Example 13, 6-[methyl(1-pyrimidin-2-ylpropyl)amino]-4-oxo-1-[1-[4-(trifluoromethyl)phenyl]ethyl]-5H-pyrazolo[3,4-d]pyrimidine-3-carbonitrile] the figure was 5.2 nM; with `CCC(c1ncccn1)N(C)c1nc2c(c(C#N)nn2C(C)c2ccc(C(F)(F)F)cc2)c(=O)[nH]1` (single isomer, unassigned) [Example 14, 6-[methyl(1-pyrimidin-2-ylpropyl)amino]-4-oxo-1-[1-[4-(trifluoromethyl)phenyl]ethyl]-5H-pyrazolo[3,4-d]pyrimidine-3-carbonitrile], 0.01 nM; with `CCC(c1ncccn1)N(C)c1nc2c(c(C#N)nn2C(C)c2ccc(C(F)(F)F)cc2)c(=O)[nH]1` (single isomer, unassigned) [Example 15, 6-[methyl(1-pyrimidin-2-ylpropyl)amino]-4-oxo-1-[1-[4-(trifluoromethyl)phenyl]ethyl]-5H-pyrazolo[3,4-d]pyrimidine-3-carbonitrile], 2.82 nM.
Regarding `CCC(c1ncccn1)N(C)c1nc2c(c(C#N)nn2C(C)c2ccc(C(F)(F)F)cc2)c(=O)[nH]1` (single isomer, unassigned) [Example 16, 6-[methyl(1-pyrimidin-2-ylpropyl)amino]-4-oxo-1-[1-[4-(trifluoromethyl)phenyl]ethyl]-5H-pyrazolo[3,4-d]pyrimidine-3-carbonitrile], the Ki was 11.1 nM.
Regarding `CCC(c1ncc(C(F)F)cn1)N(C)c1nc2c(c(C#N)nn2C(C)c2ccc(C(F)(F)F)nc2)c(=O)[nH]1` (single isomer, unassigned) [Example 17, 6-[1-[5-(difluoromethyl)pyrimidin-2-yl]propyl-methyl-amino]-4-oxo-1-[1-[6-(trifluoromethyl)-3-pyridyl]ethyl]-5H-pyrazolo[3,4-d]pyrimidine-3-carbonitrile], the Ki was 0.01 nM.
For the compound `CCC(c1ncc(C(F)F)cn1)N(C)c1nc2c(c(C#N)nn2C(C)c2ccc(C(F)(F)F)nc2)c(=O)[nH]1` (single isomer, unassigned) [Example 18, 6-[1-[5-(difluoromethyl)pyrimidin-2-yl]propyl-methyl-amino]-4-oxo-1-[1-[6-(trifluoromethyl)-3-pyridyl]ethyl]-5H-pyrazolo[3,4-d]pyrimidine-3-carbonitrile], the Ki turned out to be 2.07 nM.
The figure for `CCC(c1ncc(C(F)F)cn1)N(C)c1nc2c(c(C#N)nn2C(C)c2ccc(C(F)(F)F)nc2)c(=O)[nH]1` (single isomer, unassigned) [Example 19, 6-[1-[5-(difluoromethyl)pyrimidin-2-yl]propyl-methyl-amino]-4-oxo-1-[1-[6-(trifluoromethyl)-3-pyridyl]ethyl]-5H-pyrazolo[3,4-d]pyrimidine-3-carbonitrile] is 7.36 nM.
